The subject of assay [1] is Mycobacterium tuberculosis. In words: Potentiation of ethionamide induced antibacterial activity against Mycobacterium tuberculosis W4-E1 harboring EthA Gly343Ala mutant expressing GFP incubated for 5 days by fluorescence based analysis. The class given is functional, organism-based.
The test system of assay [2] is Mycobacterium tuberculosis. Briefly: Antimycobacterial activity against isoniazid, rifampicin, amikacin and moxifloxacin resistant Mycobacterium tuberculosis by broth dilution method. The class given is functional. For orientation: In broth dilution the organism is exposed to a series of concentrations in liquid medium.
In assay [3] the test system is Mycobacterium tuberculosis. In words: Antimycobacterial activity against isoniazid and rifampicin resistant Mycobacterium tuberculosis by broth dilution method. It counts as functional.
Assay [4] deals with Mycobacterium tuberculosis. In words: Antimycobacterial activity against rifampicin resistant Mycobacterium tuberculosis by broth dilution method. The class given is functional.

What is called EC50 is the concentration needed to bring the measured effect to its halfway point. Usually MIC stands for the lowest concentration that inhibits growth of the organism. Low values mean greater potency, high ones weaker potency.

Molecules are shown by their SMILES. In brackets after ≈: the same amount, converted by molar mass. A value given as a limit tells only on which side of the number the result lay.

`O=C(CCCl)N1CCC2(CC1)CC(C(F)(F)F)=NO2`: the EC50 in assay [1] was less than 140 nM.
As for `C[C@]1(Cn2cc(-c3ccc(F)cc3F)nn2)Cn2cc([N+](=O)[O-])nc2O1`, the values for the MIC in assay [2], in assay [3] and in assay [4] were 4 µg/mL (≈ 11 µM), 1 µg/mL (≈ 2.76 µM) and 4 µg/mL (≈ 11 µM), respectively.
Consider `O=C(CCCC(F)(F)F)N1CCC(c2cncc(Cl)c2)CC1`, for which, in assay [1], the 50% effective concentration (EC50) was less than 1300 nM.
The same measure, in the same setting: to `O=C(CCC(F)(F)F)N1CCC2(CC1)CC(Br)=NO2` belongs less than 140 nM.
For the molecule `O=C(CCC(F)(F)F)N1CCC(F)(c2cccnc2)CC1`, the EC50 in assay [1] is less than 1300 nM.
On the same count and under the same terms, the result for `O=C(CCC(F)(F)F)N1CCC(c2ccnc(F)c2)CC1` reads less than 1300 nM.
For the molecule `CCOC1=NOC2(CCN(C(=O)CCC(F)(F)F)CC2)C1`, in assay [1], the EC50 is less than 140 nM.
For `O=C(CCC(F)(F)F)N1CCC(c2cccc(C(F)(F)F)n2)CC1`, the 50% effective concentration (EC50) in assay [1] is less than 1300 nM.
Take `O=C(CCC(F)(F)F)N1CCC(F)(c2cc(C(F)(F)F)ccn2)CC1`: the EC50 in assay [1] was less than 1300 nM.
On the same count and under the same terms, to `O=C(CCC(F)(F)F)N1CCC2(CC1)CC(OCC(F)(F)F)=NO2` belongs less than 140 nM.
For `Cc1cccc(OCc2cn(C[C@@]3(C)Cn4cc([N+](=O)[O-])nc4O3)nn2)c1`, the minimal inhibitory concentration (MIC) in assay [2] stood at 2 µg/mL (≈ 5.4 µM); in assay [3], 1 µg/mL (≈ 2.7 µM); in assay [4], 1 µg/mL (≈ 2.7 µM).
`C[C@]1(Cn2cc(-c3ccc(OC(F)(F)F)cc3)nn2)Cn2cc([N+](=O)[O-])nc2O1`: the results for the MIC in assay [2], in assay [3] and in assay [4] were 1 µg/mL (≈ 2.44 µM), 2 µg/mL (≈ 4.87 µM) and 2 µg/mL (≈ 4.87 µM), respectively.
For the molecule `O=C(CCC(F)(F)F)N1CC(c2cc(F)c(F)c(F)c2)C1`, the EC50 in assay [1] was less than 75 nM.
The same measure, in the same setting: to `O=C(CCC(F)(F)F)N1CCC(F)(c2ccnc(Cl)c2)CC1` belongs less than 1300 nM.
For `Cc1ccccc1OCc1cn(C[C@@]2(C)Cn3cc([N+](=O)[O-])nc3O2)nn1`, the minimal inhibitory concentration (MIC) in assay [2], in assay [3] and in assay [4] was 1 µg/mL (≈ 2.7 µM) throughout.
Regarding `O=C(CCC(F)(F)F)N1CCC(F)(c2cncc(Cl)c2)CC1`, the EC50 in assay [1] is less than 1300 nM.
Regarding `C[C@]1(Cn2cc(-c3ccc(F)cc3)nn2)Cn2cc([N+](=O)[O-])nc2O1`, the minimum inhibitory concentration (MIC) in assay [2], in assay [3] and in assay [4] was 2 µg/mL (≈ 5.81 µM) each time.
With `O=C(CCC(F)(F)F)N1CCC(c2cncc(C(F)(F)F)c2)CC1`, the EC50 in assay [1] is less than 1300 nM.
Regarding `CC(C)c1ccc(OCc2cn(C[C@@]3(C)Cn4cc([N+](=O)[O-])nc4O3)nn2)cc1`, the MIC in assay [2] turned out to be 4 µg/mL (≈ 10 µM); in assay [3], 1 µg/mL (≈ 2.51 µM); in assay [4], 2 µg/mL (≈ 5.02 µM).
Take `CC(C)COC1=NOC2(CCN(C(=O)CCC(F)(F)F)CC2)C1`: the EC50 in assay [1] was less than 140 nM.
Consider `O=C(CCC(F)(F)F)N1CCC(F)(c2ccc(F)nc2)CC1`, for which the EC50 in assay [1] was less than 1300 nM.
On to `Cc1ccc(OCCc2cn(C[C@@]3(C)Cn4cc([N+](=O)[O-])nc4O3)nn2)cc1`, for which the minimum inhibitory concentration (MIC) in assay [2] is 0.25 µg/mL (≈ 0.65 µM); in assay [3], 0.25 µg/mL (≈ 0.65 µM); in assay [4], 1 µg/mL (≈ 2.6 µM).
`O=C(CCC(F)(F)F)N1CC(c2ccc(F)cc2F)C1`: in assay [1], the EC50 was less than 75 nM.
As to `C[C@]1(Cn2cc(COc3cccc(F)c3)nn2)Cn2cc([N+](=O)[O-])nc2O1`, the MIC in assay [2], in assay [3] and in assay [4] was 2 µg/mL (≈ 5.34 µM) in each case.
Regarding `O=C(CCC(F)(F)F)N1CCC(c2ccc(F)nc2)CC1`, the EC50 in assay [1] is less than 1300 nM.
`C[C@]1(Cn2cc(CN3CCOCC3)nn2)Cn2cc([N+](=O)[O-])nc2O1`: the minimum inhibitory concentration (MIC) in assay [2], in assay [3] and in assay [4] was 2 µg/mL (≈ 5.72 µM) throughout.
For the molecule `O=C(CCC(F)(F)F)N1CCC(c2ccncc2F)CC1`, the half-maximal effective concentration (EC50) in assay [1] was less than 1300 nM.
Consider `O=C(CCC(F)(F)F)N1CCC(c2cncc(Cl)c2)C1` (configuration not stated), for which, in assay [1], the 50% effective concentration (EC50) is less than 1300 nM.
On to `O=C(CCC(F)(F)F)N1CCC(F)(c2cncc(C(F)(F)F)c2)CC1`, for which the EC50 in assay [1] was less than 1300 nM.
Take `CCC1=NOC2(CCN(C(=O)CCC(F)(F)F)CC2)C1`: in assay [1], the EC50 was less than 140 nM.
For the molecule `O=C(CCC(F)(F)F)N1CCC(c2cccc(F)n2)CC1`, the EC50 in assay [1] was less than 1300 nM.
`O=C(CCC(F)(F)F)N1CCC(c2cnc(F)c(F)c2)CC1`: the EC50 in assay [1] is less than 1300 nM.
Same read-out and setting: to `O=C(CCC(F)(F)F)N1CCC(c2cccc(Cl)n2)CC1` belongs less than 1300 nM.
On to `C[C@]1(Cn2cc(COc3ccccn3)nn2)Cn2cc([N+](=O)[O-])nc2O1`, for which the values for the MIC in assay [2], in assay [3] and in assay [4] were 0.5 µg/mL (≈ 1.4 µM), 0.25 µg/mL (≈ 0.7 µM) and 0.5 µg/mL (≈ 1.4 µM), respectively.
`C[C@]1(Cn2cc(-c3ccc(Oc4ccccc4)cc3)nn2)Cn2cc([N+](=O)[O-])nc2O1`: the minimum inhibitory concentration (MIC) in assay [2], in assay [3] and in assay [4] was 1 µg/mL (≈ 2.39 µM) throughout.
As for `O=C(CCC(F)(F)F)N1CCC2(CC1)CC(F)=NO2`, the EC50 in assay [1] was less than 140 nM.
For the molecule `O=C(CCC(F)(F)F)N1CCC(c2cncc(Cl)n2)CC1`, the half-maximal effective concentration (EC50) in assay [1] is less than 1300 nM.
For `O=C(CCC(F)(F)F)N1CCC(F)(c2ccccn2)CC1`, the concentration giving a half-maximal response (EC50) in assay [1] was less than 1300 nM.
For `CCCOC1=NOC2(CCN(C(=O)CCC(F)(F)F)CC2)C1`, the EC50 in assay [1] is less than 140 nM.
`Cc1cc(-c2cn(C[C@@]3(C)Cn4cc([N+](=O)[O-])nc4O3)nn2)ccc1F`: the MIC in assay [2] was 2 µg/mL (≈ 5.58 µM); in assay [3], 4 µg/mL (≈ 11.2 µM); in assay [4], 1 µg/mL (≈ 2.79 µM).
Consider `C[C@]1(Cn2cc(COc3ccc(Br)cc3)nn2)Cn2cc([N+](=O)[O-])nc2O1`, for which the minimum inhibitory concentration (MIC) in assay [2] came to 0.25 µg/mL (≈ 0.574 µM); in assay [3] it was 0.12 µg/mL (≈ 0.276 µM); in assay [4], 0.12 µg/mL (≈ 0.276 µM).
For the molecule `C[C@]1(Cn2cc(COc3cccc(Cl)c3)nn2)Cn2cc([N+](=O)[O-])nc2O1`, the minimum inhibitory concentration (MIC) is 4 µg/mL (≈ 10.2 µM) in assay [2], 2 µg/mL (≈ 5.12 µM) in assay [3] and 2 µg/mL (≈ 5.12 µM) in assay [4].
In the case of `COc1ccc(C2CCN(C(=O)CCC(F)(F)F)CC2)cn1`, the concentration giving a half-maximal response (EC50) in assay [1] is less than 1300 nM.
For the molecule `Cc1cc(C2CCN(C(=O)CCC(F)(F)F)CC2)ccn1`, the EC50 in assay [1] was less than 1300 nM.
As for `COC1=NOC2(CCN(C(=O)CCCl)CC2)C1`, in assay [1], the EC50 is less than 140 nM.
Turning to `O=C(CCC(F)(F)F)N1CCC(F)(c2ccnc(F)c2)CC1`, the half-maximal effective concentration (EC50) in assay [1] was less than 1300 nM.
On to `O=C(CCC(F)(F)F)N1CCC(c2cc(C(F)(F)F)ccn2)CC1`, for which, in assay [1], the concentration giving a half-maximal response (EC50) is less than 1300 nM.
Consider `O=C(CCC(F)(F)F)N1CCC(c2cncc(C(F)(F)F)n2)CC1`, for which the EC50 in assay [1] is less than 1300 nM.
Take `Cc1ccc(SCc2cn(C[C@@]3(C)Cn4cc([N+](=O)[O-])nc4O3)nn2)cc1`: the MIC in assay [2] was found to be 2 µg/mL (≈ 5.18 µM); in assay [3] it was 0.5 µg/mL (≈ 1.29 µM); in assay [4], 0.25 µg/mL (≈ 0.647 µM).
With `O=C(CCC(F)(F)F)N1CCC(c2ccc(F)nc2F)CC1`, the EC50 in assay [1] is less than 1300 nM.
With `O=C(CCC(F)(F)F)N1CCC(F)(c2ccnc(C(F)(F)F)c2)CC1`, in assay [1], the EC50 was less than 1300 nM.
For `N#CC1=NOC2(CCN(C(=O)CCC(F)(F)F)CC2)C1`, the EC50 in assay [1] was less than 140 nM.
As to `O=C(CCC(F)(F)F)N1CC(c2cccc(Cl)c2)C1`, the half-maximal effective concentration (EC50) in assay [1] is less than 75 nM.
Turning to `O=C(CCC(F)(F)F)N1CCC(c2ncc(F)cc2F)CC1`, the concentration giving a half-maximal response (EC50) in assay [1] was less than 1300 nM.
For `O=C(CCC(F)(F)F)N1CCC(c2ccnc(C(F)(F)F)c2)CC1`, the EC50 in assay [1] was less than 1300 nM.
For `O=C(CCC(F)(F)F)N1CCC(c2cncc(Cl)c2)CC1`, the EC50 in assay [1] is less than 1300 nM.
As to `O=C(CCC(F)(F)F)N1CCC(c2cncc(F)c2)CC1`, in assay [1], the EC50 is less than 1300 nM.
As for `CC1=NOC2(CCN(C(=O)CCC(F)(F)F)CC2)C1`, the EC50 in assay [1] is less than 140 nM.
As to `O=C(CCC(F)(F)F)N1CC(C2CCCCC2)C1`, the half-maximal effective concentration (EC50) in assay [1] was less than 75 nM.
Turning to `O=C(CCC(F)(F)F)N1CCC(c2ccc(F)cn2)CC1`, in assay [1], the concentration for a half-maximal effect (EC50) was less than 1300 nM.
On to `O=C(CCC(F)(F)F)N1CCC(c2ccnc(Cl)c2)CC1`, for which the half-maximal effective concentration (EC50) in assay [1] was less than 1300 nM.
Consider `CCCCCCOC1=NOC2(CCN(C(=O)CCC(F)(F)F)CC2)C1`, for which the EC50 in assay [1] was less than 140 nM.

The values above are taken from ChEMBL document CHEMBL5244273, “Tuberculosis: An Overview of the Immunogenic Response, Disease Progression, and Medicinal Chemistry Efforts in the Last Decade toward the Development of Potential Drugs for Extensively Drug-Resistant Tuberculosis Strains” (J Med Chem, 2021).
